Measurements reported in patent EP0041644B1 (priority 1980, dated 1981).
Marks after values point to notes of the source that are not given here.

Experiments:
L-1210 Leukemia = L-1210 Leukemia (Table IX); type: in vivo, mice
Method: The sodium and ammonium salts of the present invention were tested against transplantable mouse tumors as indicated below.

B16 Melanoma [1] = experiment: B16 Melanoma - Test 2 (ip tumor brei); type: in vivo, mice; details: QD +9
Lewis Lung Carcinoma = Lewis Lung Carcinoma - Test 1 (ip, delayed therapy); type: in vivo, mice
B16 Melanoma [2] = experiment: B16 Melanoma - Test 3 (sc trocar fragments); type: in vivo, mice; details: for Effect MST %TC / MST Days: qd 1→9
L1210 Leukemia [3] = experiment: L1210 Leukemia - Test 3 (vehicle comparison); type: in vivo, mice; details: Day 1 only, vehicle CMC + saline
B16 Melanoma [4] = experiment: B16 Melanoma - Test 1 (ip tumor brei); type: in vivo, mice; details: for Effect MST % T/C / MST Days: QD 1→9, vehicle CMC + H2O
L1210 Leukemia [5] = experiment: L1210 Leukemia - Test 1 (survival of tumor-bearing mice); type: in vivo; details: d. 1 only
Source text: This evaluation of the ammonium salt finds the drug to be active against L1210 (ip) leukemia when administered ip one day post-implant of 10^6 L1210 cells (maximum T/C was 164%). […] The vehicle for the ammonium salt was water.

**Q.** Which results are given for `O=C1[O][Pt]2([NH]CC3(CCCCC3)C[NH]2)[O]C(=O)C1[O-].[Na+]` [Example 9, 2-Hydroxymalonato (1,1-diaminomethylcyclohexane)-platinum (II), sodium salt]?
**A.** Average Weight Change,g (L-1210 Leukemia; 2 mg/kg/inj ip, qd 1→9): -1.3 g; Effect MST % T/C (L-1210 Leukemia; 2 mg/kg/inj ip, qd 1→9): 131 % T/C; MST Days (L-1210 Leukemia; 2 mg/kg/inj ip, qd 1→9): 8.5 days; Average Weight Change,g (L-1210 Leukemia; 4 mg/kg/inj ip, qd 1→9): -1.2 g; Effect MST % T/C (L-1210 Leukemia; 4 mg/kg/inj ip, qd 1→9): 154 % T/C; MST Days (L-1210 Leukemia; 4 mg/kg/inj ip, qd 1→9): 10.0 days; Average Weight Change,g (L-1210 Leukemia; 8 mg/kg/inj ip, qd 1→9): -1.3 g; Effect MST % T/C (L-1210 Leukemia; 8 mg/kg/inj ip, qd 1→9): 238 % T/C; MST Days (L-1210 Leukemia; 8 mg/kg/inj ip, qd 1→9): 15.5 days; Average Weight Change,g (L-1210 Leukemia; 12 mg/kg/inj ip, Day 1): -1.8 g; Effect MST % T/C (L-1210 Leukemia; 12 mg/kg/inj ip, Day 1): 162 % T/C; MST Days (L-1210 Leukemia; 12 mg/kg/inj ip, Day 1): 10.5 days; Average Weight Change,g (L-1210 Leukemia; 12 mg/kg/inj ip, qd 1→9): -3.0 g; Effect MST % T/C (L-1210 Leukemia; 12 mg/kg/inj ip, qd 1→9): 292 % T/C; MST Days (L-1210 Leukemia; 12 mg/kg/inj ip, qd 1→9): 19.0 days; Average Weight Change,g (L-1210 Leukemia; 24 mg/kg/inj ip, Day 1): -3.7 g; Effect MST % T/C (L-1210 Leukemia; 24 mg/kg/inj ip, Day 1): 215 % T/C; MST Days (L-1210 Leukemia; 24 mg/kg/inj ip, Day 1): 14.0 days; Average Weight Change,g (L-1210 Leukemia; 36 mg/kg/inj ip, Day 1): -4.3 g; Effect MST % T/C (L-1210 Leukemia; 36 mg/kg/inj ip, Day 1): 223 % T/C; MST Days (L-1210 Leukemia; 36 mg/kg/inj ip, Day 1): 14.5 days; Average Weight Change,g (L-1210 Leukemia; 48 mg/kg/inj ip, Day 1): -3.6 g; Effect MST % T/C (L-1210 Leukemia; 48 mg/kg/inj ip, Day 1): 200 % T/C; MST Days (L-1210 Leukemia; 48 mg/kg/inj ip, Day 1): 13.0 days; maximum T/C (L-1210 Leukemia; qd 1→9 (cis-DDP 2.4, parent 8 and 12, sodium salt 12 mg/kg/injection)): 292%; maximum T/C (L-1210 Leukemia; single ip injection at maximum tolerated dose (cis-DDP 8 mg/kg, the two others 36 mg/kg)): 223%; Water-solubility at room temperature: ≥ 100 mg/mL

**Q.** Which results are given for `[NH2][Pt]1([NH2])[O]C(=O)C(O)C(=O)[O]1` [2-Hydroxymalonato diammine platinum (II), 2-hydroxymalonato diammine platinum (II)]?
**A.** Average Weight Change (B16 Melanoma [1]; 2 mg/kg/day ip): -1.1 g; Effect MST % T/C (B16 Melanoma [1]; 2 mg/kg/day ip): 182 % T/C; MST Days (B16 Melanoma [1]; 2 mg/kg/day ip): 37.5 days; Average Weight Change (B16 Melanoma [1]; 4 mg/kg/day ip): -1.1 g; Effect MST % T/C (B16 Melanoma [1]; 4 mg/kg/day ip): 163 % T/C; MST Days (B16 Melanoma [1]; 4 mg/kg/day ip): 33.5 days; Average Weight Change (B16 Melanoma [1]; 8 mg/kg/day ip): -2.1 g; Effect MST % T/C (B16 Melanoma [1]; 8 mg/kg/day ip): 190 % T/C; MST Days (B16 Melanoma [1]; 8 mg/kg/day ip): 39.0 days; Average Weight Change (B16 Melanoma [1]; 16 mg/kg/day ip): -2.3 g; Effect MST % T/C (B16 Melanoma [1]; 16 mg/kg/day ip): >293^a % T/C; MST Days (B16 Melanoma [1]; 16 mg/kg/day ip): >60.0^a Days; Effect MST %TC (Lewis Lung Carcinoma; 8 mg/kg/inj ip, qd 5→13): 112 %TC; MST Days (Lewis Lung Carcinoma; 8 mg/kg/inj ip, qd 5→13): 14.0 days; Effect MST %TC (Lewis Lung Carcinoma; 12 mg/kg/inj ip, qd 5→13): 168 %TC; MST Days (Lewis Lung Carcinoma; 12 mg/kg/inj ip, qd 5→13): 21.0 days; Effect MST %TC (Lewis Lung Carcinoma; 16 mg/kg/inj ip, qd 5→13): 176 %TC; MST Days (Lewis Lung Carcinoma; 16 mg/kg/inj ip, qd 5→13): 22.0 days; Effect MST %TC (Lewis Lung Carcinoma; 20 mg/kg/inj ip, d. 5,9&13): 100 %TC; MST Days (Lewis Lung Carcinoma; 20 mg/kg/inj ip, d. 5,9&13): 12.5 days; Effect MST %TC (Lewis Lung Carcinoma; 24 mg/kg/inj ip, qd 5→13): 220 %TC; MST Days (Lewis Lung Carcinoma; 24 mg/kg/inj ip, qd 5→13): 27.5 days; Effect MST %TC (Lewis Lung Carcinoma; 40 mg/kg/inj ip, d. 5,9&13): 120 %TC; MST Days (Lewis Lung Carcinoma; 40 mg/kg/inj ip, d. 5,9&13): 15.0 days; Effect MST %TC (Lewis Lung Carcinoma; 60 mg/kg/inj ip, d. 5,9&13): 156 %TC; MST Days (Lewis Lung Carcinoma; 60 mg/kg/inj ip, d. 5,9&13): 19.5 days; Effect MST %TC (Lewis Lung Carcinoma; 80 mg/kg/inj ip, d. 5,9&13): 152 %TC; MST Days (Lewis Lung Carcinoma; 80 mg/kg/inj ip, d. 5,9&13): 19.0 days; Survivors Day 9(48) (Lewis Lung Carcinoma; Day 48 (figure in parentheses), 60 mg/kg/inj ip, d. 5,9&13): 1; maximum T/C (Lewis Lung Carcinoma; given ip, therapy from day 5): 220%; Survivors Day 9(48) (Lewis Lung Carcinoma; mouse, in vivo, ip, 8 mg/kg): 6/6; Survivors Day 9(48) (Lewis Lung Carcinoma; mouse, in vivo, ip, 12 mg/kg): 6/6; Survivors Day 9(48) (Lewis Lung Carcinoma; mouse, in vivo, ip, 16 mg/kg): 6/6; Survivors Day 9(48) (Lewis Lung Carcinoma; mouse, in vivo, ip, 20 mg/kg): 6/6; Survivors Day 9(48) (Lewis Lung Carcinoma; mouse, in vivo, ip, 24 mg/kg): 6/6; Survivors Day 9(48) (Lewis Lung Carcinoma; mouse, in vivo, ip, 40 mg/kg): 6/6; Survivors Day 9(48) (Lewis Lung Carcinoma; mouse, in vivo, ip, 60 mg/kg): 6/6; Survivors Day 9(48) (Lewis Lung Carcinoma; mouse, in vivo, ip, 80 mg/kg): 6/6; Effect MST %TC (B16 Melanoma [2]; 8 mg/kg/inj ip): 131 %TC; MST Days (B16 Melanoma [2]; 8 mg/kg/inj ip): 40.0 days; Effect MST %TC (B16 Melanoma [2]; 12 mg/kg/inj ip): 115 %TC; MST Days (B16 Melanoma [2]; 12 mg/kg/inj ip): 35.0 days; Effect MST %TC (B16 Melanoma [2]; 16 mg/kg/inj ip): 48 %TC; MST Days (B16 Melanoma [2]; 16 mg/kg/inj ip): 14.5 days; Effect MST %TC (B16 Melanoma [2]; 24 mg/kg/inj ip): TOX; MST Days (B16 Melanoma [2]; 24 mg/kg/inj ip): TOX; T/C (B16 Melanoma [2]; given ip, sc-implanted B16 melanoma): 131%; Effect MST % T/C (L1210 Leukemia [3]; 40 mg/kg ip): 114 % T/C; MST Days (L1210 Leukemia [3]; 40 mg/kg ip): 8.0 days; Effect MST % T/C (L1210 Leukemia [3]; 60 mg/kg ip): 143 % T/C; MST Days (L1210 Leukemia [3]; 60 mg/kg ip): 10.0 days; Effect MST % T/C (L1210 Leukemia [3]; 80 mg/kg ip): 129 % T/C; MST Days (L1210 Leukemia [3]; 80 mg/kg ip): 9.0 days; Effect MST % T/C (L1210 Leukemia [3]; 100 mg/kg ip): 100 % T/C; MST Days (L1210 Leukemia [3]; 100 mg/kg ip): 7.0 days; Effect MST % T/C (B16 Melanoma [4]; 2 mg/kg/day ip): 133 % T/C; MST Days (B16 Melanoma [4]; 2 mg/kg/day ip): 26.0 days; Effect MST % T/C (B16 Melanoma [4]; 4 mg/kg/day ip): 187 % T/C; MST Days (B16 Melanoma [4]; 4 mg/kg/day ip): 36.5 days; Effect MST % T/C (B16 Melanoma [4]; 8 mg/kg/day ip): 177 % T/C; MST Days (B16 Melanoma [4]; 8 mg/kg/day ip): 34.5 days; Effect MST % T/C (B16 Melanoma [4]; 16 mg/kg/day ip): >308* % T/C; MST Days (B16 Melanoma [4]; 16 mg/kg/day ip): >60.0* Days; Effect MST % T/C (B16 Melanoma [4]; 24 mg/kg/day ip): 54 % T/C; MST Days (B16 Melanoma [4]; 24 mg/kg/day ip): 10.5 days; Effect MST % T/C (B16 Melanoma [4]; 32 mg/kg/day ip): 38 % T/C; MST Days (B16 Melanoma [4]; 32 mg/kg/day ip): 7.5 days; maximum T/C (B16 Melanoma [4]; ip B16, ip QD 1→9): > 308%; Effect MST % T/C (L1210 Leukemia [5]; 20 mg/kg/day ip): 143 % T/C; MST Days (L1210 Leukemia [5]; 20 mg/kg/day ip): 10.0 days; Effect MST % T/C (L1210 Leukemia [5]; 40 mg/kg/day ip): 143 % T/C; MST Days (L1210 Leukemia [5]; 40 mg/kg/day ip): 10.0 days; Effect MST % T/C (L1210 Leukemia [5]; 60 mg/kg/day ip): 157 % T/C; MST Days (L1210 Leukemia [5]; 60 mg/kg/day ip): 11.0 days; Effect MST % T/C (L1210 Leukemia [5]; 80 mg/kg/day ip): 171 % T/C; MST Days (L1210 Leukemia [5]; 80 mg/kg/day ip): 12.0 days
